What all share (experiment): NCI-60 cell line screen, 48 h
Assay [1] has as its system U-251.
In assay [2] the test system is IGROV-1.
Assay [3] has as its system SN12C.
For assay [4], the system named is HOP-62.
The test system of assay [5] is A498.
Assay [6] has as its system SNB-19.
Assay [7] deals with TK-10.
Assay [8] deals with OVCAR-4.
Assay [9] deals with SF-295.
Assay [10] relates to MDA-MB-231.
The subject of assay [11] is NCI-H23.
For assay [12], the system named is COLO 205.
Assay [13] has as its system OVCAR-8.
Assay [14] has as its system A549.
Assay [15] has as its system NCI-H460.
The subject of assay [16] is MCF7.
For assay [17], the system named is KM12.
Assay [18] deals with SK-MEL-5.
The subject of assay [19] is OVCAR-3.
The subject of assay [20] is SK-MEL-2.

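Test compounds were applied to cells in 96-well plates for 48 hours at 5 doses. GI50: concentration for 50% inhibition of growth.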 Active and inactive are the calls of the source. No stated cut-off is given here; in the data, active = GI50 up to about 1.1 µM and inactive = higher. Where a SMILES comes first, the peptide text is derived from it. [ ]: non-standard residue; d: D form. The star is where a group is joined. ξ: configuration not given here. ξPhe(4-NO2) = NC(Cc1ccc([N+](=O)[O-])cc1)C(=O)O; Boc = CC(C)(C)OC(=O)* Bounds are passed on as bounds.

On to `CCN(CC)/C(Cl)=C(Cl)\C(=C1\Nc2ccc(OC)cc21)[N+](=O)[O-]`, for which the GI50 in assay [1] was 37.5 µM (inactive); in assay [2], 88.1 µM (inactive); in [3] it was > 100 µM (inactive); in assay [4] it was 78.7 µM (inactive); in assay [5], > 100 µM (inactive); in [6] it was 61 µM (inactive). Also, the GI50 in assay [7] was 83.6 µM (inactive); in assay [8] it was 30.8 µM (inactive); in assay [9] it was 45.8 µM (inactive); in assay [10] it was 45.5 µM (inactive); in [11], 56.6 µM (inactive); in assay [12] it was 43.4 µM (inactive). Further, the GI50 is 63.4 µM (inactive) in [13]; 58.9 µM (inactive) in assay [14]; 31.1 µM (inactive) in assay [15]; 54.8 µM (inactive) in assay [16]; 69.5 µM (inactive) in assay [17]; 28.6 µM (inactive) in assay [18]. Also, the GI50 in assay [19] was 13.7 µM (inactive).
With `CC(CO)CCNc1ncnc2c1ncn2CCC#N` (stereo unspecified), the GI50 in assay [2], in [3], in [4], in assay [5], in [6] and in assay [7] was > 100 µM (inactive) throughout. Besides, the GI50 in assay [8], in assay [9], in assay [10], in assay [11], in [12] and in assay [13] was > 100 µM (inactive) in each case. Besides, the GI50 in assay [14], in assay [15], in [16], in assay [17], in assay [18] and in assay [19] was > 100 µM (inactive) throughout.
Turning to `Nc1ncnc2c1ncn2Cc1cccc(CCl)c1`, the GI50 in [1] was 13.8 µM (inactive); in [2] it was 16.3 µM (inactive); in [3], 15.1 µM (inactive); in assay [4], 12.7 µM (inactive); in [5], 15.2 µM (inactive); in assay [7] it was 17 µM (inactive). In addition, the GI50 was 20.3 µM (inactive) in assay [8]; 15.9 µM (inactive) in assay [9]; 16.6 µM (inactive) in assay [10]; 12.6 µM (inactive) in assay [11]; 15 µM (inactive) in [20]; 16.1 µM (inactive) in assay [13]. Further, the GI50 in assay [14] was 21.8 µM (inactive); in assay [15] it was 14.2 µM (inactive); in [16], 10 µM (inactive); in assay [17] it was 15.1 µM (inactive); in [18], 16.1 µM (inactive); in assay [19], 14.1 µM (inactive).
`COc1ccc(CC2C(=O)NC(C)C(=O)N(C)C3Cc4ccc(cc4)Oc4cc(ccc4O)CC(C(=O)NC(C)C(=O)NC(C)C(=O)N2C)N(C)C3=O)cc1` (stereo unspecified): the GI50 in assay [1] is 0.0175 µM (active); in assay [2], 0.0175 µM (active); in [3], 0.0175 µM (active); in assay [4], 0.0179 µM (active); in assay [5], 0.0175 µM (active); in [7], 0.0257 µM (active). The GI50 was 0.0175 µM (active) in [8]; < 0.0001 µM (active) in assay [10]; 0.0175 µM (active) in [11]; 0.0175 µM (active) in [12]; 0.0191 µM (active) in assay [13]; 0.0175 µM (active) in assay [15]. The GI50 in [16] and in [18] was 0.0175 µM (active) in each case.
Regarding `CN(C)S(=O)(=O)Nc1nnc(S(N)(=O)=O)s1`, the GI50 in [1], in assay [2], in [4], in assay [5], in assay [6] and in [7] was > 100 µM (inactive) in each case. Moreover, the GI50 in [8], in [9], in assay [10], in assay [11], in assay [20] and in assay [12] was > 100 µM (inactive) throughout. For the same compound, the GI50 in [14], in [15], in [16], in assay [17], in assay [18] and in [19] was > 100 µM (inactive) in each case.
For `CCNC(=O)CNC(=O)C(Cc1ccc([N+](=O)[O-])cc1)NC(=O)OC(C)(C)C` (stereo unspecified) (Boc-[ξPhe(4-NO2)]-Gly-NHEt), the GI50 in [1] was > 100 µM (inactive); in [2], > 100 µM (inactive); in assay [3] it was > 100 µM (inactive); in assay [4], > 100 µM (inactive); in assay [5], 53.6 µM (inactive); in [6], > 100 µM (inactive). For the same compound, the GI50 in assay [7], in [8], in assay [9], in assay [10], in [11] and in assay [12] was > 100 µM (inactive) throughout. For the same compound, the GI50 in assay [13], in assay [14], in assay [15], in assay [16], in [17] and in assay [18] was > 100 µM (inactive) each time. Further, the GI50 in assay [19] is > 100 µM (inactive).
With `O=C(NC1CCCCC1)c1cc2ccccc2cc1O`, the GI50 is 44.2 µM (inactive) in [1]; 35.5 µM (inactive) in [2]; 35.7 µM (inactive) in assay [4]; 25.4 µM (inactive) in [5]; 31.1 µM (inactive) in assay [6]; 73.3 µM (inactive) in assay [7]. The GI50 in [8] was 20.3 µM (inactive); in assay [9] it was 29.9 µM (inactive); in assay [10], 61 µM (inactive); in assay [20] it was 23.3 µM (inactive); in assay [12], 53.1 µM (inactive); in [13], 26.2 µM (inactive). Further, the GI50 in assay [15] was 26.1 µM (inactive); in assay [16], 39.2 µM (inactive); in assay [17], 34.2 µM (inactive); in [18], 19.6 µM (inactive).
For the compound `O=C(O)c1nc(-c2ccccc2)ncc1-c1nnnn1-c1ccccc1`, the GI50 in [1], in [2], in [3], in [4], in assay [5] and in assay [6] was > 100 µM (inactive) each time. The GI50 in [7], in assay [9], in assay [10], in assay [11], in [20] and in assay [12] was > 100 µM (inactive) throughout. The GI50 in assay [13], in assay [14], in assay [15], in [16], in [17] and in assay [18] was > 100 µM (inactive) in each case. The GI50 in [19] is > 100 µM (inactive).

Source of the values: ChEMBL document CHEMBL1201862, “PubChem BioAssay data set” (2004).
